The target of data set [1] is T1, CYP450 (20-HETE formation) (Homo sapiens, UniProt P04798+P05177+P05181+P08684+P10632+P10635+P11509+P11712+P13584+P20813+P20815+P20853+P24462+P24903+P33260+P33261+P51589+P78329+P98187+Q02928+Q08477+Q16678+Q16696+Q5TCH4+Q6VVX0+Q7Z449+Q8TAV3+Q96SQ9+Q9HB55). Description: Inhibition of CYP450 in human liver microsomes assessed as inhibition of 20-HETE formation at 10 uM in presence of arachidonic acid and NADPH by multi-enzyme assay based LC-MS/MS analysis relative to control. The class given is ADME, Microsome. The settings on record: probe arachidonic acid. (In general: Microsomes from liver hold many membrane-bound enzymes, among them those of drug oxidation.)

A short description of data set [2]: Apparent permeability of the compound by PAMPA assay. The class given is ADME. (In PAMPA a lipid-coated filter parts donor from acceptor wells.)
Data set [3] is described as follows: Inhibition of CYP450 in B6C3F1 mouse liver microsomes assessed as inhibition of 20-HETE formation in presence of arachidonic acid and NADPH by multi-enzyme assay based LC-MS/MS analysis. The class given is ADME, Microsome.
Data set [4] can be described thus: Drug recovery in human liver microsomes assessed as UDPGA-fortified conjugation recovery in presence of arachidonic acid incubated for 30 mins. Conditions: read-out: Drug recovery. The class given is ADME, Microsome.
Data set [5] can be described thus: Plasma protein binding in human assessed as bound fraction by rapid equilibrium dialysis assay. The class given is ADME, cell-free. The settings on record: read-out: PPB. (In equilibrium dialysis free small molecules cross a membrane that holds back macromolecules.)
In data set [6] the target is T1, CYP450 (20-HETE formation). The experiment in a line: Inhibition of CYP450 in human HCT-116 cells assessed as 20-HETE formation in presence of arachidonic acid incubated for 15 mins by multi-enzyme assay based LC-MS/MS analysis relative to control. The class given is ADME, cell-based. The settings on record: probe arachidonic acid.
The target in data set [7] is T1, CYP450 (20-HETE formation). The experiment in a line: Inhibition of CYP450 in human liver microsomes assessed as inhibition of 20-HETE formation in presence of arachidonic acid and NADPH by multi-enzyme assay based LC-MS/MS analysis relative to control. Type of data set: ADME, Microsome. The settings on record: probe arachidonic acid.
Data set [8] is described as follows: Inhibition of CYP450 in Sprague-Dawley rat liver microsomes assessed as inhibition of 20-HETE formation in presence of arachidonic acid and NADPH by multi-enzyme assay based LC-MS/MS analysis relative to control. Type of data set: ADME, Microsome.
Data set [9] is described as follows: Solubility of the compound in phospahte-buffered saline buffer at pH 7.4 by shake flask method. Conditions: phosphate-buffered saline. Type of data set: physicochemical.
Data set [10] addresses T1, CYP450 (20-HETE formation). Description: Inhibition of CYP450 in human HCT-116 cells assessed as 20-HETE formation in presence of arachidonic acid incubated for 15 mins by multi-enzyme assay based LC-MS/MS analysis. Conditions: probe arachidonic acid. The class given is ADME, cell-based.
Data set [11] is described as follows: Inhibition of CYP450 in B6C3F1 mouse liver microsomes assessed as inhibition of 20-HETE formation in presence of arachidonic acid and NADPH by multi-enzyme assay based LC-MS/MS analysis relative to control. The class given is ADME, Microsome.
The target in data set [12] is CYP450 (EpETrE formation) (Homo sapiens, UniProt P04798+P05177+P05181+P08684+P10632+P10635+P11509+P11712+P13584+P20813+P20815+P20853+P24462+P24903+P33260+P33261+P51589+P78329+P98187+Q02928+Q08477+Q16678+Q16696+Q5TCH4+Q6VVX0+Q7Z449+Q8TAV3+Q96SQ9+Q9HB55). The experiment in a line: Inhibition of CYP450 in human liver microsomes assessed as inhibition of EpETrE formation at 10 uM in presence of arachidonic acid and NADPH by multi-enzyme assay based LC-MS/MS analysis relative to control. The class given is ADME, Microsome. The settings on record: probe arachidonic acid.

Data set [13] is filed under the species Homo sapiens. The experiment in a line: Selectivity index, log ratio of Inhibition of CYP450 in human liver microsomes assessed as inhibition of EpETrE formation in presence of arachidonic acid to Inhibition of CYP450 in human liver microsomes assessed as inhibition of 20-HETE formation in presence of arachidonic acid.
Data set [14] can be described thus: Drug recovery in human HCT-116 cells incubated for 24 hrs. The class given is ADME, cell-based. Conditions: read-out: Drug recovery.
Data set [15] deals with T1, CYP450 (20-HETE formation). Description: Inhibition of CYP450 in human liver microsomes assessed as inhibition of 20-HETE formation in presence of arachidonic acid and NADPH by multi-enzyme assay based LC-MS/MS analysis. The settings on record: probe arachidonic acid. The class given is ADME, Microsome.
Data set [16] in a line: Apparent permeability of the compound in human Caco-2 cells. The class given is ADME, cell-based.
Data set [17] deals with T2, CYP4A11 (Homo sapiens, UniProt Q02928).
T2 sequence (Q02928 whole entry): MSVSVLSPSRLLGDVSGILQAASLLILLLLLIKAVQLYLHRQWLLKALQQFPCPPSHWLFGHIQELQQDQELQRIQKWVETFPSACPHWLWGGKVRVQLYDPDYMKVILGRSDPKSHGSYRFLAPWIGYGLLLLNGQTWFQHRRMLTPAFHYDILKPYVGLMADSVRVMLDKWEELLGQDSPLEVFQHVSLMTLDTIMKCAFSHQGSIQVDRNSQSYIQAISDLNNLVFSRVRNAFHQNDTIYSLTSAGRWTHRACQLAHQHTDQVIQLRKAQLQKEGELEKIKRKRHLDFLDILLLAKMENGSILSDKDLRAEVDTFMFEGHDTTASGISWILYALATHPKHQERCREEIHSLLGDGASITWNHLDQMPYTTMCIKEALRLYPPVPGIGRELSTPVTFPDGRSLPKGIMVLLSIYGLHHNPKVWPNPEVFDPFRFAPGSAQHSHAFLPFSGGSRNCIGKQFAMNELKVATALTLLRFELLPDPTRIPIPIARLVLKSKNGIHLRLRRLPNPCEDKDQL
Description: Inhibition of recombinant human CYP4A11 expressed in baculovirus-infected insect cells at 50 uM incubated for 15 mins in presence of arachidonic acid and NADPH by jump-dilution assay relative to control. The class given is ADME. Conditions: probe arachidonic acid.

Data set [18] addresses T3, Cytochrome P450 2J2 (Homo sapiens, UniProt P51589).
T3 sequence (P51589 whole entry): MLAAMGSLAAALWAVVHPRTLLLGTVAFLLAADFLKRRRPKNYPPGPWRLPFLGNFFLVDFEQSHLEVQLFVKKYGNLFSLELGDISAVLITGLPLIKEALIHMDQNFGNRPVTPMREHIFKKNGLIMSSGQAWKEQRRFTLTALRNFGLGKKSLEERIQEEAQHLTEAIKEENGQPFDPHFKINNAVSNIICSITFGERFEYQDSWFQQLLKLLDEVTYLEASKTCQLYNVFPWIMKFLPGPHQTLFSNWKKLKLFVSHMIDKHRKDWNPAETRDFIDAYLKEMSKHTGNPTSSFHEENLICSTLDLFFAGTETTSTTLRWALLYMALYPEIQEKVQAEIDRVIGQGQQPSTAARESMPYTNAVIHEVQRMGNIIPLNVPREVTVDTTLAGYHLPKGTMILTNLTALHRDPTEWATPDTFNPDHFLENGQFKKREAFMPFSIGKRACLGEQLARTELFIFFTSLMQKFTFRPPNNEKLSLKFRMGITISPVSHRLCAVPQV
Description: Inhibition of recombinant human CYP2J2 expressed in baculovirus-infected insect cells in presence of arachidonic acid and NADPH incubated for 15 mins by jump-dilution assay relative to control. The class given is ADME.

In data set [19] the target is T4, Cytochrome P450 4A11 (Homo sapiens, UniProt Q02928).
T4 sequence (Q02928 whole entry): T2 sequence (Q02928 whole entry)
The experiment in a line: Inhibition of recombinant human CYP4A11 expressed in baculovirus-infected insect cells in presence of arachidonic acid and NADPH incubated for 15 mins by jump-dilution assay relative to control. Type of data set: ADME.

pIC50: −log10 of the molar value. ≈ marks a conversion by molar mass, not a printed value.

As a reminder, the inhibition is the change of the read-out against control, counted positive when it falls. By Papp is commonly meant a coefficient for how fast a substance crosses the barrier. A word on the pIC50: it is −log10 of the IC50, conventionally taken in molar units. Usually IC50 stands for the concentration needed to halve the response being measured. For orientation: thermodynamic solubility means the concentration in solution at equilibrium with solid.

For `O=c1cc(-c2ccc(C(F)(F)F)cc2)oc2ccccc12`, the inhibition at 10 µM in data set [1] is 53%; in data set [12] it was below 15%. For the same compound, the Papp in data set [2] is 4.6 ×10⁻⁶ cm/s; in data set [16] it was 4.1 ×10⁻⁶ cm/s. The pIC50 in data set [3] is 5.12; in data set [7], 5.55; in data set [8] it was 5.85; in [11], 6.15; in data set [15], 5.31; in data set [18], 4.30. Also, the pIC50 in data set [19] is 4.30. Besides, the remaining at 0.5 h in [4] was above 95%. Moreover, the fraction unbound in [5] was below 0.05. For the same compound, the IC50 at 15 min in data set [6] turned out to be 1900 nM; in data set [10], 1100 nM. Further, in data set [9], the solubility (thermodynamic) was found to be 3.4 µM (≈ 0.987 µg/mL). The log(ratio) in data set [13] was 0.58. Moreover, in data set [14], the remaining at 24 h amounted to 89%. For the same compound, in data set [17], the inhibition at 0.25 h, 50 µM was below 25%.

The values are drawn from ChEMBL document CHEMBL5113402, “Inhibition of cytochrome P450 monooxygenase-catalyzed oxylipin formation by flavonoids: Evaluation of structure-activity relationship towards CYP4F2-selective inhibitors” (Eur J Med Chem, 2022).
